Measured values as given in paper PMC5162400, “Discovery of novel inhibitors disrupting HIF-1α/von Hippel–Lindau interaction through shape-based screening and cascade docking” (PeerJ, 2016).

Legend:
[1] = molecular target: T1, pVHL (Homo sapiens, UniProt P40337); assay: Fluorescence polarization binding assay (FAM-DEALA-Hyp-YIPD displacement from V1-213CB); settings: inhibition of HIF-1α/pVHL interaction, mean ± SEM
Protocol: The fluorescence intensities parallel (Intparallel) and perpendicular (Intperpedicular) to the plane of excitation were measured in black 96-well NBS assay plates (Greiner Microlon) at room temperature. The plate was then shaken for 1 min and centrifuged for 1 min. […] The inhibition percentage was determined by normalizing to maximum and minimum polarization and graphed against the log [VL].

[2] = molecular target: T1, pVHL; design: method as in earlier work; settings: native ligands of pVHL crystal complexes, labelled by PDB ID, ref Buckley et al., 2012b, Van-Molle et al., 2012a, Dias et al., 2014, Galdeano et al., read-out: Kd of native ligand; cited from earlier work

T1 sequence (P40337 whole entry): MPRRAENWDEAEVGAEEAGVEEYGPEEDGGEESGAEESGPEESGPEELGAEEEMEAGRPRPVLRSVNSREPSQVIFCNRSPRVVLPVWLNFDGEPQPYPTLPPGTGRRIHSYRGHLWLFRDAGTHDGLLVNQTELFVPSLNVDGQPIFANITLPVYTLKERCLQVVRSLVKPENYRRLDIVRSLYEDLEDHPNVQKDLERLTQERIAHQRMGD
T1 sequence (Q15369 whole entry partner): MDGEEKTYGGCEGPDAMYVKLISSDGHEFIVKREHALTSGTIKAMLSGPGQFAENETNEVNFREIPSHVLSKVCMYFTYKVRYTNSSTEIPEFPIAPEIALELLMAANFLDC
T1 sequence (Q15370 whole entry partner): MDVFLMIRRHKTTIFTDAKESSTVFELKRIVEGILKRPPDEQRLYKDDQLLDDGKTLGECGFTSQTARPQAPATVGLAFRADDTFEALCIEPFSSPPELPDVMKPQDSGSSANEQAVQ

| IC50 [1] [nM] | SMILES | Kd [2] [nM] |
| --- | --- | --- |
| 102000 ± 6130 | c1ccc(-c2ccc(-c3nc4ccc(-c5ccccc5)cc4o3)cc2)cc1 [Compound 6] | – |
| – | Cc1ncsc1-c1ccc(CNC(=O)C2CC(O)CN2C(=O)c2cccc(N)c2C)cc1 (stereo not drawn) [Compound 4B9K] | 700 |
| 2000 ± 140 | CC1=NN(c2ccccc2)C(=O)/C1=N\Nc1ccc(N2CCOCC2)cc1 [Compound 9] | – |
